One assay has as its target T1, MMP-2 (Homo sapiens, UniProt P08253).
T1 construct: purchased Oncogene Research Products (Calbiochem) PF023
T1 sequence (P08253 110-660): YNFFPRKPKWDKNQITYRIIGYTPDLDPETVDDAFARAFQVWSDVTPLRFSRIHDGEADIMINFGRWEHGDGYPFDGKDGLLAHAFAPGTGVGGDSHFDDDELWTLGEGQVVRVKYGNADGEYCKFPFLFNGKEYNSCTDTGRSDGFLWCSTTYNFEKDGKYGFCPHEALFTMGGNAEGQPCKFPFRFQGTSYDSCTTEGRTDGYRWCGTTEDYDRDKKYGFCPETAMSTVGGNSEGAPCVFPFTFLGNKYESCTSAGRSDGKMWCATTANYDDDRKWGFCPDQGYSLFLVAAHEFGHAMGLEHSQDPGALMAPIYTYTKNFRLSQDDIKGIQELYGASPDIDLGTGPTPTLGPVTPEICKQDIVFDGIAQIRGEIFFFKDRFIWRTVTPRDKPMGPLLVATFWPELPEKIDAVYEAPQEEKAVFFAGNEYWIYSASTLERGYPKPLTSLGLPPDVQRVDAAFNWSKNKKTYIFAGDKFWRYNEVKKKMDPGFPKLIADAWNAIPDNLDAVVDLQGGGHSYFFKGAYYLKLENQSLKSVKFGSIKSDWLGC
Nature of the assay: In-vitro fluorescence assay of MMP-2 activity. The format is biochemical. Particulars: recombinant human MMP-2; read-out: MMP-2 IC50.

The target of a further assay is T2, MMP-13 (Homo sapiens, UniProt P45452).
T2 construct: made in house
The assay can be described thus: In-vitro fluorescence assay of MMP-13 activity. The format is biochemical. To be noted: recombinant human catalytic domain of MMP-13; read-out: MMP-13 IC50.

Structures are written as SMILES.

Method for MMP-13: A continuous assay was used in which the substrate is a synthetic peptide containing a fluorescent group (7-methoxycoumarin; Mca) which is quenched by energy transfer to a 2,4-dinitrophenyl group. […] The substrate used was Mca-PQGL-(3-[2,4-dinitrophenyl]-L-2,3-diaminopropionyl)-AR-OH (denoted as Wammp-5, custom synthesized by AnaSpec, Inc.). The assay buffer consisted of 50 mM Hepes (pH 7.4), 100 mM NaCl, 5 mM CaCl2, and 0.005% Brij-35. Each well of black polystyrene 96-well plates contained a 200 μL reaction mixture consisting of assay buffer, purified MMP (final concentration of 0.5 nM, prepared by diluting with the assay buffer), and varied concentrations of inhibitor (prepared by serially diluting a given inhibitor in DMSO in 96-well polypropylene plate). […] The enzymatic reactions were initiated by adding the substrate to a final concentration of 20 μM, and mixing 10 times with a pipette. The final DMSO concentration in the assay was 6.0%.
Plots of the inhibitor concentration vs. the percent inhibition were fit to the following equation: y=(a−d)/[1+(x/c)^b]+d, a general sigmoidal curve with Hill slope, a to d. x is the inhibitor concentration under test. y is the percent inhibition. a is the limiting response as x approaches zero. As x increases without bound, y tends toward its limit d. c is the inflection point (IC50) for the curve. That is, y is halfway between the lower and upper asymptotes when x=c. b is the slope factor or Hill coefficient.

In the case of `COc1c(C#N)ccc2oc(C(=O)Nc3ccc(-c4ccc(S(=O)(=O)N[C@H](C(=O)O)C(C)C)cc4)cc3)c(C)c12` [Example 124, (S)-2-{4′-[(5-Cyano-4-methoxy-3-methyl-benzofuran-2-carbonyl)-amino]-biphenyl-4-sulfonylamino}-3-methyl-butyric acid], the IC50 (commonly the point on the concentration scale where inhibition reaches its midpoint) on MMP-2 came out at 522 nM; at MMP-13, 3 nM.
As to `COc1c(C)ccc2oc(C(=O)Nc3ccc(-c4ccc(S(=O)(=O)N[C@H](C(=O)O)C(C)C)cc4)cc3)c(C)c12` [Example 125, (S)-2-{4′-[(5-Methyl-4-methoxy-3-methyl-benzofuran-2-carbonyl)-amino]-biphenyl-4-sulfonylamino}-3-methyl-butyric acid], the concentration for half-maximal inhibition (IC50) at MMP-2 was 1610 nM; at MMP-13, 4.9 nM.
As to `CC(C)[C@H](NS(=O)(=O)c1ccc(-c2ccc(NC(=O)c3nc4ccccc4o3)cc2)cc1)C(=O)O` [Example 127, (S)-3-Methyl-2-{4′-[(benzooxazole-2-carbonyl)-amino]-biphenyl-4-sulfonylamino}-butyric acid], the IC50 on MMP-2 worked out at 47 nM; at MMP-13, 0.8 nM.
For `Cc1cccc2oc(C(=O)Nc3ccc(-c4ccc(S(=O)(=O)N[C@H](C(=O)O)C(C)C)cc4)cc3)nc12` [Example 128, (S)-3-Methyl-2-{4′-[(4-methyl-benzooxazole-2-carbonyl)-amino]-biphenyl-4-sulfonylamino}-butyric acid], the IC50 at MMP-2 worked out at 59.5 nM; on MMP-13 it was 2.8 nM.
Take `CC(C)[C@H](NS(=O)(=O)c1ccc(-c2ccc(NC(=O)c3nc4cc(Cl)ccc4s3)cc2)cc1)C(=O)O` [Example 130, (S)-3-Methyl-2-{4′-[(5-chloro-benzothiazole-2-carbonyl)-amino]-biphenyl-4-sulfonylamino}-butyric acid]: the values for the IC50 at MMP-2 and at MMP-13 were 25.9 nM and 2 nM, respectively.
On the same counts, the results for `CC(C)[C@H](NS(=O)(=O)c1ccc(-c2ccc(NC(=O)c3nc4cc(C(F)(F)F)ccc4s3)cc2)cc1)C(=O)O` [Example 131, (S)-3-Methyl-2-{4′-[(5-trifluoromethyl-benzothiazole-2-carbonyl)-amino]-biphenyl-4-sulfonylamino}-butyric acid] are 149 nM and 17 nM.
As for `CC(C)[C@@H](NS(=O)(=O)c1ccc(-c2ccc(OCc3nc4ccccc4n3C)cc2)cc1)C(=O)O` [Example 138, D-3-Methyl-2-[4′-(1-methyl-1H-benzoimidazol-2-ylmethoxy)-biphenyl-4-sulfonylamino]-butyric acid], the IC50 on MMP-2 amounted to 1120 nM; at MMP-13, 89.3 nM.
The like results for `COc1c(Cl)ccc2oc(COc3ccc(-c4ccc(S(=O)(=O)N[C@H](C(=O)O)C(C)C)cc4)cc3)c(C)c12` [Example 142, L-2-[4′-(5-Chloro-4-methoxy-3-methylbenzofuran-2-ylmethoxy)-biphenyl-4-sulfonylamino]-3-methyl butyric acid] were, in that order, 130 nM and 2.1 nM.
In the case of `COc1c(C#N)ccc2oc(COc3ccc(-c4ccc(S(=O)(=O)N[C@H](C(=O)O)C(C)C)cc4)cc3)c(C)c12` [Example 143, L-2-[4′-(5-Cyano-4-methoxy-3-methylbenzofuran-2-ylmethoxy)-biphenyl-4-sulfonylamino]-3-methyl butyric acid], the half-maximal inhibitory concentration (IC50) on MMP-2 stood at 64 nM; at MMP-13, 1.2 nM.
In the case of `CCc1cccc2oc(COc3ccc(-c4ccc(S(=O)(=O)N[C@H](C(=O)O)C(C)C)cc4)cc3)c(C)c12` [Example 146, L-2-[4′-(4-Ethyl-3-methylbenzofuran-2-ylmethoxy)-biphenyl-4-sulfonylamino]-3-methyl butyric acid], the IC50 was determined as 207 nM at MMP-2 and 1.2 nM on MMP-13.
For `Cc1c(COc2ccc(-c3ccc(S(=O)(=O)N[C@@H](C(=O)O)C(C)C)cc3)cc2)oc2ccc(Br)c(OC(C)C)c12` [Example 149, N-({4′-[(5-Bromo-4-isopropoxy-3-methyl-1-benzofuran-2-yl)methoxy]-1,1′-biphenyl-4-yl}sulfonyl)-D-valine], the IC50 on MMP-2 came out at 375 nM; on MMP-13 it was 7.9 nM.
Turning to `COc1c(Br)ccc2oc(CNc3ccc(-c4ccc(S(=O)(=O)N[C@H](C(=O)O)C(C)C)cc4)cc3)c(C)c12` [Example 150, N-[(4′-{[(5-bromo-4-methoxy-3-methyl-1-benzofuran-2-yl)methyl]amino}-1,1′-biphenyl-4-yl)sulfonyl]-L-valine], the IC50 on MMP-2 stood at 198 nM; on MMP-13 it was 8.1 nM.
The like results for `Cc1c(C(=O)Nc2ccc(-c3ccc(S(=O)(=O)N[C@H](C(=O)O)C(C)C)cc3)cc2)oc2ccc3ccccc3c12` [Example 154, L-3-Methyl-2-{4′-[(1-methyl-naphtho[2,1-b]furan-2-carbonyl)-amino]-biphenyl-4-sulfonylamino}-butyric acid] were, in that order, 60 nM and 1.7 nM.
On to `COC(=O)C(C)(C)Oc1cccc2oc(C(=O)Nc3ccc(-c4ccc(S(=O)(=O)N[C@H](C(=O)O)C(C)C)cc4)cc3)c(C)c12` [Example 156, L-2-(4′-{[4-(1-Methoxycarbonyl-1-methyl-ethoxy)-3-methyl-benzofuran-2-carbonyl]-amino}-biphenyl-4-sulfonylamino)-3-methyl-butyric acid], for which the concentration for half-maximal inhibition (IC50) at MMP-2 amounted to 6200 nM; at MMP-13, 25 nM.
On to `CCOC(=O)COc1cccc2oc(C(=O)Nc3ccc(-c4ccc(S(=O)(=O)N[C@H](C(=O)O)C(C)C)cc4)cc3)c(C)c12` [Example 157, L-2-{4′-[(4-Ethoxycarbonylmethoxy-3-methyl-benzofuran-2-carbonyl)-amino]-biphenyl-4-sulfonylamino}-3-methyl-butyric acid], for which the IC50 on MMP-2 was 2050 nM; on MMP-13 it was 8.8 nM.
With `COC(=O)COc1cccc2oc(C(=O)Nc3ccc(-c4ccc(S(=O)(=O)N[C@H](C(=O)O)C(C)C)cc4)cc3)c(C)c12` [Example 158, L-2-{4′-[(4-Methoxycarbonylmethoxy-3-methyl-benzofuran-2-carbonyl)-amino]-biphenyl-4-sulfonylamino}-3-methyl-butyric acid], the IC50 came to 1840 nM at MMP-2 and 8.7 nM on MMP-13.
On the same counts, the results for `Cc1c(C(=O)Nc2ccc(-c3ccc(S(=O)(=O)N[C@H](C(=O)O)C(C)C)cc3)cc2)oc2cccc(OCC(=O)O)c12` [Example 159, L-2-{4′-[(4-Carboxymethoxy-3-methyl-benzofuran-2-carbonyl)-amino]-biphenyl-4-sulfonylamino}-3-methyl-butyric acid] are 3520 nM and 8.5 nM.
Turning to `Cc1c(C(=O)Nc2ccc(-c3ccc(S(=O)(=O)N[C@H](C(=O)O)C(C)C)cc3)cc2)oc2cccc(OCc3cccnc3)c12` [Example 160, L-3-Methyl-2-(4′-{[3-methyl-4-(pyridin-3-ylmethoxy)-benzofuran-2-carbonyl]-amino}-biphenyl-4-sulfonylamino)-butyric acid], the IC50 on MMP-2 was 4550 nM; on MMP-13 it was 9.5 nM.
`Cc1c(C(=O)Nc2ccc(-c3ccc(S(=O)(=O)N[C@H](C(=O)O)C(C)C)cc3)cc2)oc2cccc(O)c12` [Example 161, L-2-{4′-[(4-Hydroxy-3-methyl-benzofuran-2-carbonyl)-amino]-biphenyl-4-sulfonylamino}-3-methyl-butyric acid]: the IC50 came out at 379 nM on MMP-2 and 6.1 nM at MMP-13.
In the case of `CCn1c(C(=O)Nc2ccc(-c3ccc(S(=O)(=O)N[C@H](C(=O)O)C(C)C)cc3)nc2)nc2ccccc21` [Example 162, L-2-(4-{5-[(1-Ethyl-1H-benzimidazole-2-carbonyl)-amino]-pyridin-2-yl}-benzenesulfonylamino)-3-methyl-butyric acid], the IC50 is 2610 nM on MMP-2 and 85 nM on MMP-13.
On the same counts, the results for `CC(C)[C@H](NS(=O)(=O)c1ccc(-c2ccc(NC(=O)c3cc(-c4ccc(Cl)cc4)no3)cc2)cc1)C(=O)O` [Example 166, (S)-2-(4′-{[3-(4-Chloro-phenyl)-isoxazole-5-carbonyl]-amino}-biphenyl-4-sulfonylamino)-3-methyl-butyric acid] are 5.8 nM and 3.1 nM.
Consider `Cc1c(C(=O)Nc2ccc(-c3ccc(S(=O)(=O)N[C@H](C(=O)O)C(C)C)cc3)cc2)oc2cccc(OCC(=O)N(C)C)c12` [Example 176, (S)-2-{4′-[(4-Dimethylcarbamoylmethoxy-3-methyl-benzofuran-2-carbonyl)-amino]-biphenyl-4-sulfonylamino}-3-methyl-butyric acid], for which the IC50 is 4340 nM on MMP-2 and 20 nM on MMP-13.
In the case of `Cc1c(C(=O)Nc2ccc(-c3ccc(S(=O)(=O)N[C@H](C(=O)O)C(C)C)cc3)cc2)oc2cccc(OCCNC(=O)OC(C)(C)C)c12` [Example 177, (S)-2-(4′-{[4-(2-tert-Butoxycarbonylamino-ethoxy)-3-methyl-benzofuran-2-carbonyl]-amino}-biphenyl-4-sulfonylamino)-3-methyl-butyric acid], the half-maximal inhibitory concentration (IC50) on MMP-2 came to 3000 nM; on MMP-13 it was 15 nM.
As to `Cc1c(C(=O)Nc2ccc(-c3ccc(S(=O)(=O)N[C@H](C(=O)O)C(C)C)cc3)cc2)oc2cccc(OCc3ccccn3)c12` [Example 178, (S)-3-Methyl-2-(4′-{[3-methyl-4-(pyridin-2-ylmethoxy)-benzofuran-2-carbonyl]-amino}-biphenyl-4-sulfonylamino)-butyric acid], the figures for the IC50 at MMP-2 and at MMP-13 were 3320 nM and 13 nM, respectively.

The values are drawn from patent US7420001B2 (Wyeth, priority 2003, dated 2008).
